From patent US20100125059A1, “1-BIARYLAZETIDINONE DERIVATIVE” (Teijin Pharma Limited, priority 2007, published 2010)
Like-named read-outs stand apart in the source and are kept apart here.

Key:
Caco-2 cells = experiment: Cholesterol absorption inhibition assay (in vitro), [14C] cholesterol mixed micelles; format: cell-based; conditions: Homo sapiens, 24 hours, read-out: cholesterol absorption inhibitory activity; for inhibition at 10 µM: concentration of 10 μM; for inhibition at 12.5 µM: concentration of 12.5 μM
Description: This assay measures cholesterol absorption inhibitory activity by adding mixed micelles containing [^14C] cholesterol to cells and measuring cholesterol taken in the cells as oleic acid cholesteryl ester. The assay is conducted after Caco-2 cells are seeded on multi-well plates and cultured (culture medium: DMEM containing 10% fetal bovine serum, 1% non-essential amino acids, 1% penicillin, and 1% streptomycin) for 2 weeks. To each well, the micelle solution (in an amount required to provide the following final concentrations: 600 μM of sodium oleate, 50 μM of phosphatidyl choline, 5 mM of sodium taurocholate, 2.5 μM of cholesterol, and 2.5 μM of [^14C] cholesterol) and a test compound solution (in an amount required to provide the final concentration of 0.5 to 25 μM) or a solvent as a control are added, and incubation is started at 37° C. 24 hours later, the culture medium is removed, and the lipid component is extracted with hexane/2-propanol (3:2, v/v) and applied onto thin-layer silica gel plates. After drying, each plate is eluted with a mixture of hexane, diethyl ether, and acetic acid in a ratio of 83:16:1. The plates are photoexposed on imaging plates and analyzed using BAS-2500 (FUJIFILM). The amounts of light exposure of the areas corresponding to the cholesteryl ester are calculated. Background is measured using a blank space of the plate. Inhibition rates are calculated using values obtained by subtracting the background values from both values of the control and the test sample, respectively, in accordance with the following equation. A test value is calculated as a percentage (%) with respect to the control.
In the Equation 1, A is the control group, BG is a background, and B is the test compound.
The following results were obtained from the measurement by this method on cholesterol absorption inhibitory activity of the compounds of the present invention. The following results were obtained by the evaluation using concentrations of 10 μM and/or 12.5 μM.

[1] = system: hamsters fed a high cholesterol diet; experiment: Measurement of lipid lowering effect in hamsters fed a high cholesterol diet; format: in vivo, Male Golden Syrian hamsters; conditions: Mesocricetus auratus, po, 168 h, dose 0.1 mg/kg, gavage once daily, 7 days
In short: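 Male Golden Syrian hamsters (6/group) on 0.5% cholesterol diet, dosed by gavage once daily in corn oil at 0.01 to 10 mg/kg; serum and liver sampled 4 h after last dose. TC, TG and LDL-C measured enzymatically; effects expressed as % suppression versus control and normal-diet groups.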

[2] = read-out: serum LDL-C lowering effect (suppression rate of an increase in serum LDL-C concentration)
[3] = read-out: serum TG lowering effect (serum TG lowering rate)

SMILES: O=C1[C@H](SC[C@H](O)c2ccc(F)cc2)[C@@H](c2ccc(O)cc2)N1c1ccc(-c2ccncc2Cl)cc1 [Example 12, (3R,4R)-3-[(2R)-2-(4-fluorophenyl)-2-hydroxyethylthio]-1-[4-(3-chloropyridin-4-yl)phenyl]-4-(4-hydroxyphenyl)azetidin-2-one]
- inhibition at 10 µM (Caco-2 cells): ≥ 50%
- inhibition in vivo at 0.1 mg/kg [1, 2]: ≥ 50%

SMILES: O=C1[C@H](SC[C@H](O)c2ccc(F)cc2)[C@@H](c2ccc(O)cc2)N1c1ccc(-c2cccnc2Cl)cc1 [Example 15, (3R,4R)-3-[(2R)-2-(4-fluorophenyl)-2-hydroxyethylthio]-1-[4-(2-chloropyridin-3-yl)phenyl]-4-(4-hydroxyphenyl)azetidin-2-one]
- inhibition at 10 µM (Caco-2 cells): ≥ 50%
- inhibition in vivo at 0.1 mg/kg [1, 2]: ≥ 50%
- inhibition in vivo at 0.1 mg/kg [1, 3]: ≥ 20%

SMILES: O=C1[C@H](SCCc2ccc(F)cc2)[C@@H](c2ccc(O)cc2)N1c1ccc(-c2cccnc2)cc1 [Example 5, (3R,4R)-3-[2-(4-fluorophenyl)ethylthio]-4-(4-hydroxyphenyl)-1-[4-(pyridin-3-yl)phenyl]azetidin-2-one]
- inhibition at 10 µM (Caco-2 cells): ≥ 50%
- inhibition at 12.5 µM (Caco-2 cells): ≥ 60%
- inhibition in vivo at 0.1 mg/kg [1, 3]: ≥ 20%

SMILES: O=C1[C@H](SCCc2ccccc2)[C@@H](c2ccc(O)cc2)N1c1ccc(-c2cccnc2)cc1 [Example 4, (3R,4R)-4-(4-hydroxyphenyl)-3-(2-phenylethylthio)-1-[4-(pyridin-3-yl)phenyl]azetidin-2-one]
- inhibition at 10 µM (Caco-2 cells): ≥ 50%
- inhibition at 12.5 µM (Caco-2 cells): ≥ 60%

SMILES: O=C1[C@H](SC[C@H](O)c2ccc(F)cc2)[C@@H](c2ccc(O)cc2)N1c1ccc(-c2cccnc2F)cc1 [Example 21, (3R,4R)-3-[(2R)-2-(4-fluorophenyl)-2-hydroxyethylthio]-1-[4-(2-fluoropyridin-3-yl)phenyl]-4-(4-hydroxyphenyl)azetidin-2-one]
- inhibition at 10 µM (Caco-2 cells): ≥ 50%

SMILES: CN(C)c1ccc(-c2ccc(N3C(=O)[C@H](SC[C@H](O)c4ccc(Cl)cc4)[C@H]3c3ccc(O)cc3)cc2)cn1 [Example 88, (3R,4R)-3-[(2R)-2-(4-chlorophenyl)-2-hydroxyethylthio]-1-[4-(6-dimethylaminopyridin-3-yl)phenyl]-4-(4-hydroxyphenyl)azetidin-2-one]
- inhibition at 12.5 µM (Caco-2 cells): ≥ 60%

SMILES: COc1cnccc1-c1ccc(N2C(=O)[C@H](SC[C@H](O)c3ccc(F)cc3)[C@H]2c2ccc(O)cc2)cc1 [Example 23, (3R,4R)-3-[(2R)-2-(4-fluorophenyl)-2-hydroxyethylthio]-4-(4-hydroxyphenyl)-1-[4-(3-methoxypyridin-4-yl)phenyl]azetidin-2-one]
- inhibition at 10 µM (Caco-2 cells): ≥ 50%

SMILES: CC(=O)c1cncc(-c2ccc(N3C(=O)[C@H](SC[C@H](O)c4ccc(Cl)cc4)[C@H]3c3ccc(O)cc3)cc2)c1 [Example 105, (3R,4R)-3-[(2R)-2-(4-chlorophenyl)-2-hydroxyethylthio]-1-[4-(5-acetylpyridin-3-yl)phenyl]-4-(4-hydroxyphenyl)azetidin-2-one]
- inhibition at 12.5 µM (Caco-2 cells): ≥ 60%

SMILES: O=C1[C@H](SC[C@H](O)c2ccc(F)cc2)[C@@H](c2ccc(O)cc2)N1c1ccc(-c2cccc3[nH]ccc23)cc1 [Example 13, (3R,4R)-3-[(2R)-2-(4-fluorophenyl)-2-hydroxyethylthio]-4-(4-hydroxyphenyl)-1-[4-(indol-4-yl)phenyl]azetidin-2-one]
- inhibition at 10 µM (Caco-2 cells): ≥ 50%

SMILES: O=C1[C@H](SC[C@H](O)c2ccc(F)cc2)[C@@H](c2ccc(O)c(O)c2)N1c1ccc(-c2cccnc2)cc1 [Example 37, (3R,4R)-3-[(2R)-2-(4-fluorophenyl)-2-hydroxyethylthio]-4-(3,4-dihydroxyphenyl)-1-[4-(pyridin-3-yl)phenyl]azetidin-2-one]
- inhibition at 10 µM (Caco-2 cells): ≥ 50%
